Source: patent US20120083522A1, “MODULATION OF INFLAMMATORY RESPONSES BY FACTOR XI” (Isis Pharmaceuitcals, inc., priority 2009, published 2012)

Columns and labels:
human Factor XI mRNA [1] = test: Antisense inhibition in HepG2 cells by microwalk gapmers, 75 nM, lipofectin (Example 3); assay type: cell-based; conditions: HepG2 cells, 75 nM, oligonucleotides targeted to nucleobases 1275 to 1318 of SEQ ID NO: 1
Outline: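 HepG2 cells (10,000 per well) were transfected with 75 nM gapmer using lipofectin and treated for about 24 h. Factor XI mRNA was quantified by real-time PCR, normalized to RiboGreen total RNA and expressed as percent inhibition versus untreated controls.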

human Factor XI mRNA [2] = test: Dose-dependent inhibition in HepG2 cells, lipofectin (Example 4); assay type: cell-based; conditions: 16 hours
Outline: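 HepG2 cells at 10,000 per well were lipofectin-transfected with 9.375, 18.75, 37.5 or 75 nM antisense oligonucleotide for about 16 h. Factor XI mRNA was quantified by real-time PCR (primer probe set RTS 2966) and normalised to RIBOGREEN total RNA. Values are percent inhibition versus untreated cells.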

human Factor XI mRNA [3] = test: Dose-dependent inhibition in HepG2 cells, electroporation (Example 4); assay type: cell-based; conditions: 16 hours
Outline: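 HepG2 cells electroporated with 0.7, 2.2, 6.7 or 20 μM antisense gapmer and harvested after ~16 h. Factor XI mRNA quantified by qRT-PCR (primer probe set RTS 2966), normalised to total RNA (RIBOGREEN). Reported as percent inhibition versus untreated control cells.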

human Factor XI mRNA [4] = test: Dose-dependent inhibition in cyno primary hepatocytes, electroporation (Example 6); assay type: cell-based, cynomolgus monkey; conditions: approx. 16 h
Experimental: Cells were plated at a density of 35,000 cells per well and transfected via electroporation with 0.74 nM, 2.2 nM, 6.7 nM, 20 nM, 60 nM, and 180 nM concentrations of antisense oligonucleotide, as specified in Table 13. After a treatment period of approximately 16 hours, RNA was isolated from the cells and human Factor XI mRNA levels were measured by quantitative real-time PCR. Human Factor XI primer probe set RTS 2966 was used to measure mRNA levels. Factor XI mRNA levels were adjusted according to total RNA content, as measured by RIBOGREEN®. Results are presented as percent inhibition of human Factor XI, relative to untreated control cells.

human Factor XI mRNA [5] = test: Dose-dependent inhibition in HepB3 cells, lipofectin (Example 7); assay type: cell-based; conditions: approx. 16 h
Experimental: Cells were plated at a density of 4,000 cells per well and transfected using lipofectin reagent with 2.3 nM, 4.7 nM, 9.4 nM, 18.75 nM, 37.5 nM, and 75 nM concentrations of antisense oligonucleotide, as specified in Table 14. After a treatment period of approximately 16 hours, RNA was isolated from the cells and human Factor XI mRNA levels were measured by quantitative real-time PCR. Human Factor XI primer probe set RTS 2966 was used to measure mRNA levels. Factor XI mRNA levels were adjusted according to total RNA content, as measured by RIBOGREEN®. Results are presented as percent inhibition of Factor XI, relative to untreated control cells.

[6] = Tolerability in Sprague-Dawley rats: body and organ weight (Example 19); assay type: in vivo; conditions: 50 mg/kg s.c. twice per week for 6 weeks, change over weight at start of study
Excerpt: Urine samples were taken before the start of treatment.
The body weights are presented in Table 78 and are expressed as a percent change over the weights taken at the start of the study.

## 416999 (antisense GCACAGTTTCTGGCAGGCCT; 2-13-5 gapmer, wing sugar chemistry not given here, further chemistry not given here) [compound 416999]
Human Factor XI mRNA [1]
  % inhibition of human Factor XI mRNA levels: 92%
Human Factor XI mRNA [2]; 9.375 nM
  percent inhibition of Factor XI mRNA, relative to untreated control cells: 24%
Human Factor XI mRNA [2]; 18.75 nM
  percent inhibition of Factor XI mRNA, relative to untreated control cells: 37%
Human Factor XI mRNA [2]; 37.5 nM
  percent inhibition of Factor XI mRNA, relative to untreated control cells: 55%
Human Factor XI mRNA [2]; 75 nM
  percent inhibition of Factor XI mRNA, relative to untreated control cells: 73%
Human Factor XI mRNA [3]; 0.7 μM
  percent inhibition of Factor XI mRNA, relative to untreated control cells: 20%
Human Factor XI mRNA [3]; 2.2 μM
  percent inhibition of Factor XI mRNA, relative to untreated control cells: 42%
Human Factor XI mRNA [3]; 6.7 μM
  percent inhibition of Factor XI mRNA, relative to untreated control cells: 77%
Human Factor XI mRNA [3]; 20 μM
  percent inhibition of Factor XI mRNA, relative to untreated control cells: 88%
Human Factor XI mRNA [4]; 0.74 nM
  percent inhibition of human Factor XI mRNA: 3%
Human Factor XI mRNA [4]; 2.2 nM
  percent inhibition of human Factor XI mRNA: 40%
Human Factor XI mRNA [4]; 6.7 nM
  percent inhibition of human Factor XI mRNA: 36%
Human Factor XI mRNA [4]; 20 nM
  percent inhibition of human Factor XI mRNA: 62%
Human Factor XI mRNA [4]; 60 nM
  percent inhibition of human Factor XI mRNA: 67%
Human Factor XI mRNA [4]; 180 nM
  percent inhibition of human Factor XI mRNA: 82%
Human Factor XI mRNA [5]; 2.3 nM
  percent inhibition of human Factor XI mRNA: 19%
Human Factor XI mRNA [5]; 4.7 nM
  percent inhibition of human Factor XI mRNA: 33%
Human Factor XI mRNA [5]; 9.4 nM
  percent inhibition of human Factor XI mRNA: 42%
Human Factor XI mRNA [5]; 18.75 nM
  percent inhibition of human Factor XI mRNA: 60%
Human Factor XI mRNA [5]; 37.5 nM
  percent inhibition of human Factor XI mRNA: 71%
Human Factor XI mRNA [5]; 75 nM
  percent inhibition of human Factor XI mRNA: 59%
[6]
  Percent change in Body weight: −37%

## 417002 (antisense GGTGCACAGTTTCTGGCAGG; 2-13-5 gapmer, wing sugar chemistry not given here, further chemistry not given here) [compound 417002]
Human Factor XI mRNA [1]
  % inhibition of human Factor XI mRNA levels: 92%
Human Factor XI mRNA [2]; 9.375 nM
  percent inhibition of Factor XI mRNA, relative to untreated control cells: 35%
Human Factor XI mRNA [2]; 18.75 nM
  percent inhibition of Factor XI mRNA, relative to untreated control cells: 52%
Human Factor XI mRNA [2]; 37.5 nM
  percent inhibition of Factor XI mRNA, relative to untreated control cells: 67%
Human Factor XI mRNA [2]; 75 nM
  percent inhibition of Factor XI mRNA, relative to untreated control cells: 70%
Human Factor XI mRNA [3]; 0.7 μM
  percent inhibition of Factor XI mRNA, relative to untreated control cells: 32%
Human Factor XI mRNA [3]; 2.2 μM
  percent inhibition of Factor XI mRNA, relative to untreated control cells: 38%
Human Factor XI mRNA [3]; 6.7 μM
  percent inhibition of Factor XI mRNA, relative to untreated control cells: 82%
Human Factor XI mRNA [3]; 20 μM
  percent inhibition of Factor XI mRNA, relative to untreated control cells: 91%
Human Factor XI mRNA [4]; 0.74 nM
  percent inhibition of human Factor XI mRNA: 32%
Human Factor XI mRNA [4]; 2.2 nM
  percent inhibition of human Factor XI mRNA: 16%
Human Factor XI mRNA [4]; 6.7 nM
  percent inhibition of human Factor XI mRNA: 28%
Human Factor XI mRNA [4]; 20 nM
  percent inhibition of human Factor XI mRNA: 38%
Human Factor XI mRNA [4]; 60 nM
  percent inhibition of human Factor XI mRNA: 55%
Human Factor XI mRNA [4]; 180 nM
  percent inhibition of human Factor XI mRNA: 71%
Human Factor XI mRNA [5]; 2.3 nM
  percent inhibition of human Factor XI mRNA: 24%
Human Factor XI mRNA [5]; 4.7 nM
  percent inhibition of human Factor XI mRNA: 30%
Human Factor XI mRNA [5]; 9.4 nM
  percent inhibition of human Factor XI mRNA: 46%
Human Factor XI mRNA [5]; 18.75 nM
  percent inhibition of human Factor XI mRNA: 57%
Human Factor XI mRNA [5]; 37.5 nM
  percent inhibition of human Factor XI mRNA: 71%
Human Factor XI mRNA [5]; 75 nM
  percent inhibition of human Factor XI mRNA: 65%
[6]
  Percent change in Body weight: −29%

## 417003 (antisense TGGTGCACAGTTTCTGGCAG; 2-13-5 gapmer, wing sugar chemistry not given here, further chemistry not given here) [compound 417003]
Human Factor XI mRNA [1]
  % inhibition of human Factor XI mRNA levels: 89%
Human Factor XI mRNA [2]; 9.375 nM
  percent inhibition of Factor XI mRNA, relative to untreated control cells: 26%
Human Factor XI mRNA [2]; 18.75 nM
  percent inhibition of Factor XI mRNA, relative to untreated control cells: 44%
Human Factor XI mRNA [2]; 37.5 nM
  percent inhibition of Factor XI mRNA, relative to untreated control cells: 60%
Human Factor XI mRNA [2]; 75 nM
  percent inhibition of Factor XI mRNA, relative to untreated control cells: 56%
Human Factor XI mRNA [3]; 0.7 μM
  percent inhibition of Factor XI mRNA, relative to untreated control cells: 0%
Human Factor XI mRNA [3]; 2.2 μM
  percent inhibition of Factor XI mRNA, relative to untreated control cells: 34%
Human Factor XI mRNA [3]; 6.7 μM
  percent inhibition of Factor XI mRNA, relative to untreated control cells: 75%
Human Factor XI mRNA [3]; 20 μM
  percent inhibition of Factor XI mRNA, relative to untreated control cells: 89%
Human Factor XI mRNA [4]; 0.74 nM
  percent inhibition of human Factor XI mRNA: 12%
Human Factor XI mRNA [4]; 2.2 nM
  percent inhibition of human Factor XI mRNA: 18%
Human Factor XI mRNA [4]; 6.7 nM
  percent inhibition of human Factor XI mRNA: 19%
Human Factor XI mRNA [4]; 20 nM
  percent inhibition of human Factor XI mRNA: 39%
Human Factor XI mRNA [4]; 60 nM
  percent inhibition of human Factor XI mRNA: 58%
Human Factor XI mRNA [4]; 180 nM
  percent inhibition of human Factor XI mRNA: 74%
Human Factor XI mRNA [5]; 2.3 nM
  percent inhibition of human Factor XI mRNA: 11%
Human Factor XI mRNA [5]; 4.7 nM
  percent inhibition of human Factor XI mRNA: 28%
Human Factor XI mRNA [5]; 9.4 nM
  percent inhibition of human Factor XI mRNA: 40%
Human Factor XI mRNA [5]; 18.75 nM
  percent inhibition of human Factor XI mRNA: 40%
Human Factor XI mRNA [5]; 37.5 nM
  percent inhibition of human Factor XI mRNA: 63%
Human Factor XI mRNA [5]; 75 nM
  percent inhibition of human Factor XI mRNA: 58%
[6]
  Percent change in Body weight: −40%
